Test results reported in PubChem BioAssay AID1963985 (Molecular Pharmacology Branch, DTP, NCI, 2024).
Values belong to the compound of their own block, whether it stands above or below them.

Tested on: 252836-082-R-J2-PDC tumor spheroids, viability
Assay: Anticancer human tumor 252836-082-R-J2-PDC patient-derived head and neck squamous cell carcinoma cell line growth inhibition [PI3K]
Settings: spheroids with HUVEC and MSC; for IC50: curve of first compound; for viability, T/C: stronger effect = lower value
Method in brief: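 Agents were dosed from a top concentration near clinical Cmax (otherwise 10 microM) in half-log decrements, alone or combined with PI3K inhibitors. The spheroids contain tumor cells plus endothelial (HUVEC) and MSC stroma; viability is measured.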

[1] = second compound 0.00316 µM, first compound 0.0316 µM
[2] = second compound 0.00316 µM, first compound 0.1 µM
[3] = second compound 0.00316 µM, first compound 0.316 µM
[4] = second compound 0.00316 µM, first compound 1 µM
[5] = second compound 0.00316 µM, first compound 3.16 µM
[6] = second compound 0.00316 µM, first compound 10 µM
[7] = second compound 0.01 µM, first compound 0.0316 µM
[8] = second compound 0.01 µM, first compound 0.1 µM
[9] = second compound 0.01 µM, first compound 0.316 µM
[10] = second compound 0.01 µM, first compound 1 µM
[11] = second compound 0.01 µM, first compound 3.16 µM
[12] = second compound 0.01 µM, first compound 10 µM
[13] = second compound 0.0316 µM, first compound 0.0316 µM
[14] = second compound 0.0316 µM, first compound 0.1 µM
[15] = second compound 0.0316 µM, first compound 0.316 µM
[16] = second compound 0.0316 µM, first compound 1 µM
[17] = second compound 0.0316 µM, first compound 3.16 µM
[18] = second compound 0.0316 µM, first compound 10 µM
[19] = second compound 0.1 µM, first compound 0.0316 µM
[20] = second compound 0.1 µM, first compound 0.1 µM
[21] = second compound 0.1 µM, first compound 0.316 µM
[22] = second compound 0.1 µM, first compound 1 µM
[23] = second compound 0.1 µM, first compound 3.16 µM
[24] = second compound 0.1 µM, first compound 10 µM
[25] = second compound 0.316 µM, first compound 0.0316 µM
[26] = second compound 0.316 µM, first compound 0.1 µM
[27] = second compound 0.316 µM, first compound 0.316 µM
[28] = second compound 0.316 µM, first compound 1 µM
[29] = second compound 0.316 µM, first compound 3.16 µM
[30] = second compound 0.316 µM, first compound 10 µM
[31] = second compound 1 µM, first compound 0.0316 µM
[32] = second compound 1 µM, first compound 0.1 µM
[33] = second compound 1 µM, first compound 0.316 µM
[34] = second compound 1 µM, first compound 1 µM
[35] = second compound 1 µM, first compound 3.16 µM
[36] = second compound 1 µM, first compound 10 µM
[37] = second compound 0.00316 µM, first compound 0.00316 µM
[38] = second compound 0.00316 µM, first compound 0.01 µM
[39] = second compound 0.01 µM, first compound 0.00316 µM
[40] = second compound 0.01 µM, first compound 0.01 µM
[41] = second compound 0.0316 µM, first compound 0.00316 µM
[42] = second compound 0.0316 µM, first compound 0.01 µM
[43] = second compound 0.1 µM, first compound 0.00316 µM
[44] = second compound 0.1 µM, first compound 0.01 µM
[45] = second compound 0.316 µM, first compound 0.00316 µM
[46] = second compound 0.316 µM, first compound 0.01 µM
[47] = second compound 1 µM, first compound 0.00316 µM
[48] = second compound 1 µM, first compound 0.01 µM
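Also: spheroids exposed to agents for seven days before readout.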
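For viability, T/C in this document: percent of vehicle DMSO control viability so 100% = untreated growth.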

IC50 (second compound 0.00316 µM): 710 nM | IC50 (second compound 0.01 µM): 749 nM | IC50 (second compound 0.0316 µM): 631 nM | IC50 (second compound 0.1 µM): 234 nM | IC50 (second compound 0.316 µM): 173 nM | IC50 (second compound 1 µM): < 31.6 nM
Compound: CC(C)NCC(C(=O)N1CCN(c2ncnc3c2C(C)CC3O)CC1)c1ccc(Cl)cc1 (stereo not drawn) + CC(Nc1ccc2c(c1)OCCn1cc(N3C(=O)OCC3C(F)F)nc1-2)C(N)=O
viability, T/C [1]: 100% | viability, T/C [2]: 83% | viability, T/C [3]: 66.9% | viability, T/C [4]: 41.4% | viability, T/C [5]: 29.8% | viability, T/C [6]: 18.3% | viability, T/C [7]: 83.1% | viability, T/C [8]: 88.3% | viability, T/C [9]: 69.6% | viability, T/C [10]: 42.5% | viability, T/C [11]: 28.5% | viability, T/C [12]: 20.1% | viability, T/C [13]: 87.4% | viability, T/C [14]: 82.3% | viability, T/C [15]: 67% | viability, T/C [16]: 36.9% | viability, T/C [17]: 29.3% | viability, T/C [18]: 17.9% | viability, T/C [19]: 74.8% | viability, T/C [20]: 56.4% | viability, T/C [21]: 47.9% | viability, T/C [22]: 35.8% | viability, T/C [23]: 23.8% | viability, T/C [24]: 15.7% | viability, T/C [25]: 54.9% | viability, T/C [26]: 49.6% | viability, T/C [27]: 49.4% | viability, T/C [28]: 37.3% | viability, T/C [29]: 25.4% | viability, T/C [30]: 16.6% | viability, T/C [31]: 43% | viability, T/C [32]: 42.2% | viability, T/C [33]: 37.3% | viability, T/C [34]: 29.2% | viability, T/C [35]: 22.8% | viability, T/C [36]: 14.7%

IC50 (second compound 0.00316 µM): > 1000 nM | IC50 (second compound 0.01 µM): > 1000 nM | IC50 (second compound 0.0316 µM): > 1000 nM | IC50 (second compound 0.1 µM): > 1000 nM | IC50 (second compound 0.316 µM): 36.1 nM | IC50 (second compound 1 µM): < 3.16 nM
Compound: CCN1CCN(Cc2ccc(Nc3ncc(F)c(-c4cc(F)c5nc(C)n(C(C)C)c5c4)n3)nc2)CC1 + CC(Nc1ccc2c(c1)OCCn1cc(N3C(=O)OCC3C(F)F)nc1-2)C(N)=O
viability, T/C [37]: 87.8% | viability, T/C [38]: 86.1% | viability, T/C [1]: 75.3% | viability, T/C [2]: 93.1% | viability, T/C [3]: 82.7% | viability, T/C [4]: 76.5% | viability, T/C [39]: 90.3% | viability, T/C [40]: 82.5% | viability, T/C [7]: 94.4% | viability, T/C [8]: 78.7% | viability, T/C [9]: 90% | viability, T/C [10]: 70.3% | viability, T/C [41]: 79.1% | viability, T/C [42]: 79.6% | viability, T/C [13]: 73% | viability, T/C [14]: 74.1% | viability, T/C [15]: 80.6% | viability, T/C [16]: 81.3% | viability, T/C [43]: 73.7% | viability, T/C [44]: 59.7% | viability, T/C [19]: 58.8% | viability, T/C [20]: 66.5% | viability, T/C [21]: 52.3% | viability, T/C [22]: 54.2% | viability, T/C [45]: 51.2% | viability, T/C [46]: 47.4% | viability, T/C [25]: 51.5% | viability, T/C [26]: 53.3% | viability, T/C [27]: 50.8% | viability, T/C [28]: 44.3% | viability, T/C [47]: 47% | viability, T/C [48]: 43.9% | viability, T/C [31]: 43.5% | viability, T/C [32]: 36.8% | viability, T/C [33]: 40.5% | viability, T/C [34]: 31.8%

IC50 (second compound 0.00316 µM): 383 nM | IC50 (second compound 0.01 µM): 294 nM | IC50 (second compound 0.0316 µM): 328 nM | IC50 (second compound 0.1 µM): 160 nM | IC50 (second compound 0.316 µM): < 31.6 nM | IC50 (second compound 1 µM): < 31.6 nM
Compound: Cn1ncc(Cl)c1-c1cc(C(=O)NC(CN)Cc2cccc(F)c2)sc1Cl (stereo not drawn) + CC(Nc1ccc2c(c1)OCCn1cc(N3C(=O)OCC3C(F)F)nc1-2)C(N)=O
viability, T/C [1]: 82.5% | viability, T/C [2]: 67.8% | viability, T/C [3]: 47.6% | viability, T/C [4]: 39.8% | viability, T/C [5]: 29.7% | viability, T/C [6]: 9.51% | viability, T/C [7]: 80.8% | viability, T/C [8]: 62.8% | viability, T/C [9]: 50% | viability, T/C [10]: 33.6% | viability, T/C [11]: 26.7% | viability, T/C [12]: 12.8% | viability, T/C [13]: 74.2% | viability, T/C [14]: 61.8% | viability, T/C [15]: 48.8% | viability, T/C [16]: 39.3% | viability, T/C [17]: 26.6% | viability, T/C [18]: 11.5% | viability, T/C [19]: 66.9% | viability, T/C [20]: 53.3% | viability, T/C [21]: 45.8% | viability, T/C [22]: 26.9% | viability, T/C [23]: 24.7% | viability, T/C [24]: 8% | viability, T/C [25]: 45.5% | viability, T/C [26]: 43.3% | viability, T/C [27]: 34.3% | viability, T/C [28]: 25.6% | viability, T/C [29]: 22.4% | viability, T/C [30]: 14.1% | viability, T/C [31]: 40.9% | viability, T/C [32]: 36.8% | viability, T/C [33]: 30.3% | viability, T/C [34]: 24.8% | viability, T/C [35]: 23.7% | viability, T/C [36]: 10.5%

IC50 (second compound 0.00316 µM): > 100 nM | IC50 (second compound 0.01 µM): > 100 nM | IC50 (second compound 0.0316 µM): > 100 nM | IC50 (second compound 0.1 µM): 46.7 nM | IC50 (second compound 0.316 µM): 6.75 nM | IC50 (second compound 1 µM): < 0.316 nM
Compound: Cn1ncnc1[C@H]1c2n[nH]c(=O)c3cc(F)cc(c23)N[C@@H]1c1ccc(F)cc1 + CC(Nc1ccc2c(c1)OCCn1cc(N3C(=O)OCC3C(F)F)nc1-2)C(N)=O
viability, T/C (second compound 0.00316 µM, first compound 0.000316 µM): 97.7% | viability, T/C (second compound 0.00316 µM, first compound 0.001 µM): 86.2% | viability, T/C [37]: 78.7% | viability, T/C [38]: 86.3% | viability, T/C [1]: 79.2% | viability, T/C [2]: 57.5% | viability, T/C (second compound 0.01 µM, first compound 0.000316 µM): 85.6% | viability, T/C (second compound 0.01 µM, first compound 0.001 µM): 89.5% | viability, T/C [39]: 89% | viability, T/C [40]: 84.5% | viability, T/C [7]: 72.8% | viability, T/C [8]: 53% | viability, T/C (second compound 0.0316 µM, first compound 0.000316 µM): 85.9% | viability, T/C (second compound 0.0316 µM, first compound 0.001 µM): 93.6% | viability, T/C [41]: 71.2% | viability, T/C [42]: 64.4% | viability, T/C [13]: 72.6% | viability, T/C [14]: 50.3% | viability, T/C (second compound 0.1 µM, first compound 0.000316 µM): 67.9% | viability, T/C (second compound 0.1 µM, first compound 0.001 µM): 71.8% | viability, T/C [43]: 68.7% | viability, T/C [44]: 59.5% | viability, T/C [19]: 54.3% | viability, T/C [20]: 42.1% | viability, T/C (second compound 0.316 µM, first compound 0.000316 µM): 52.8% | viability, T/C (second compound 0.316 µM, first compound 0.001 µM): 58.1% | viability, T/C [45]: 57.6% | viability, T/C [46]: 44% | viability, T/C [25]: 41% | viability, T/C [26]: 30.8% | viability, T/C (second compound 1 µM, first compound 0.000316 µM): 50.6% | viability, T/C (second compound 1 µM, first compound 0.001 µM): 45.4% | viability, T/C [47]: 50.1% | viability, T/C [48]: 36% | viability, T/C [31]: 31.9% | viability, T/C [32]: 27.2%
